We go through three molecules from patent publication US9145375B2, “Quinazolinone compounds” (PRANA BIOTECHNOLOGY LIMITED, priority 2008, dated 2015).

One data set deals with CYP2E1 (Homo sapiens, UniProt P05181). As to conditions: read-out: Literature IC50 value, CYP2E1; Chlorzoxazone-6-hydroxylation; positive control inhibitor; unit inferred; cited from earlier work.
Data set [1] has as its system 6-OHDA lesion of the SNpc. Put plainly: Parkinson's disease in vivo: 6-OHDA model. Also noted: species or system mouse. The following applies: 6-OHDA lesioned mice, dose not given; for Behaviour (Rotation) % SSV: SSV = 0%. As to the method: Parkinson's Disease In Vivo Technique: 6-OHDA Model
Preparation of the toxin 6-OHDA (1.65 mg/mL, Sigma Cat# H-4381):
6-OHDA toxin is dissolved in ascorbic acid solution (0.2 mg/mL in dH2O), store in dark on ice. To increase the speed of anaesthesia and reduce stress to the mouse, there is premedication with atropine (0.5 mg/kg) and xylazine (10 mg/kg) is injected subcutaneously via a 27 gauge needle).
To Prepare the Lesion Needle to Inject 6-OHDA:
PBS is sucked up into the line (ensure no air bubbles) with up to […] in a Hamilton syringe. Syringe is placed the in the Kd Scientific syringe pump and secured. Pump is turned the on and syringe is loaded into the pump. Pump volume is set at […] and the rate is set at 0.5 ml/min. The lesion needle is positioned so that the bevelled (eye) of the needle is at a 45° angle from the midline and tightened to secure the needle. Pump is run and checked for fluid coming out.
3-4% isoflurane is carried by oxygen to induce anaesthesia and 1-2% for maintenance of anaesthesia. Animal is placed in small induction chamber and subjected to a few minutes of 4% isoflurane in oxygen at a flow rate of approx 1 l/min. Mouse is then placed in stereotaxic frame. The anaesthetic tube is disconnected from induction box and isoflurane reduced to 2% conc and oxygen flow rate to approx […]. Tube is connected to the nose piece attached to stereotaxic frame so that anaesthetic gas can be constantly administered during surgery. LHS ear bar is screwed at approx 3 mm. RHS ear bar is screwed in until there is no sideways head movement (about 5 mm). Front incisors are placed over the mouthguard and put nose-guard on (3 mm below 0). Mouthguard is screwed into place and ensured the top of the mouse's head is level (re-check this once the animal's skull is exposed).
Using a scalpel (size 4, blade 22), the scalp is cut down the centreline of the mouse's head to expose the skull. Typically 10-15 mm. The surface of the skull is dried with a cotton bud. Drill hole is measured with a ruler 3 mm posterior from Bregma and between 1 and 1.5 mm laterally from the centre line. The skull is drilled into this position until the surface of the brain is exposed.
6-OHDA is sucked up to fill approximately 15 cm of the line and the syringe. Fluid is ensured to be coming out of needle. The bevelled of the needle is aligned over the centreline where Bregma crosses, viewed by Motik dissecting microscope. The needle is ensured to be a few mm above the skull before positioning. Frame is moved 2.9 mm in a posterior direction and 1.1 mm (11 small notches) laterally to the right (for RHS injections) from the starting coordinates at Bregma. Needle is moved down until the tip of the needle just touches the surface of the brain.
Needle is lowered to the required depth of 4.6 mm and brain is allowed to settle for 2 min.
[…] of toxin is injected into the RHS SNpc, taking 4 min. 2 min is allowed to ensure the toxin disperses. Needle is withdrawn and antiseptic applied to the wound, with suture or superglue to close.
Mouse is wrapped in a piece of tissue and placed in a warm recovery box (on a heat pad) with water bottles (50 ml tubes) warmed to 50 C. Panadol® syrup is added to mouse's water bottle.
Rotation is recorded by the Computer based Rotacount system—(Columbus Instruments, Columbus, Ohio, USA). The system comprised of 8 bowls with sensors connected to a computer which measures incremental turns (90 degrees and full turns 360 degrees) either clockwise or counter clockwise. The sensors are positioned above the centre of each bowl about 30 cm above each. Tubing and a thin empty plastic pipette are attached so that the sensor is now extended to with a few cm of the base of the bowl.
Mice are placed individually into the eight bowls. Mice are secured to the pipettes via a cable tie and tape. […]

For data set [2], the system named is MPTP induced cell death in the SN. Put plainly: Parkinson's disease in vivo: MPTP model. More on the design: species or system mouse. As to conditions: MPTP mice.

Several values for one entry are separate records, joined by “and”; a condition that tells them apart may be missing. Equal entries are not always repeated.

CYP2E1, sequence (P05181 whole entry): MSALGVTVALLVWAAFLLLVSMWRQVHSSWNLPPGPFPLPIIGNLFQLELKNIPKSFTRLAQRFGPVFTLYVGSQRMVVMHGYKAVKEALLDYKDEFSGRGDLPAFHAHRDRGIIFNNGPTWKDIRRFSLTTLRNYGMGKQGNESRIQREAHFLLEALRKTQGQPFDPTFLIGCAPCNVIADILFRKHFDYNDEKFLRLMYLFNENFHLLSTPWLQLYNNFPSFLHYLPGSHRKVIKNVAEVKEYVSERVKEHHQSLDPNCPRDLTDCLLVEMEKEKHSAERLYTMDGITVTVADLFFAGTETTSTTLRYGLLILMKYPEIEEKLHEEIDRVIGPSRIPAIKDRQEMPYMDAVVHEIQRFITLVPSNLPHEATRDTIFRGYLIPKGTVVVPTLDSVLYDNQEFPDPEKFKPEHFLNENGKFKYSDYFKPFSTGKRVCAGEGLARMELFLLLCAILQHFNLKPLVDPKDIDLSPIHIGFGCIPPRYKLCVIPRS

Take `N[C@@H]1C[C@H]1c1ccccc1` (racemic) [Tranylcypromine]: the concentration for half-maximal inhibition (IC50) (in general, the point on the concentration scale where inhibition reaches its midpoint) on CYP2E1 was 8.94 µM.
For `N[C@@H](Cc1ccc(O)c(O)c1)C(=O)O` [L-DOPA, L-3,4-dihydroxyphenylalanine], in data set [1], the “Behaviour (Rotation) % SSV” value is on record as 52.26%, the “Behaviour (Rotation) total turns/h ± SD” value is recorded as “(123.67 ± 80.90) turns/h”, the “SN cell counts % of SSV (SSV = 0%)” value was found to be 1.73% and the “SN cell counts (cells ± SD)” value is “(1953.78 ± 280.21) cells”. For the same molecule, in data set [2] (L-DOPA 20 mg/kg), the “Behaviour Pole Test, % (SSV = 0%)” value is −205.29%; the “Behaviour Pole Test, value ± SD” value was “(8.91 ± 5.25)”; the “SN cell counts % of SSV” value is 10.39% and 4.50%; the “SN cell counts (cells +/− SD)” value was 1935 ± 296 cells and 2015.91 ± 729.87 cells.
As to `C#CCN(C)[C@H](C)Cc1ccccc1` [Selegiline, reference compound], in data set [1], the “Behaviour (Rotation) % SSV” value was found to be 71.13%, the “Behaviour (Rotation) total turns/h ± SD” value is reported as “(74.80 ± 57.95) turns/h”, the “SN cell counts % of SSV (SSV = 0%)” value is reported as 0.43% and the “SN cell counts (cells ± SD)” value is “(1928.89 ± 301.77) cells”. In data set [2] (Selegiline 1 mg/kg), the “Behaviour Pole Test, % (SSV = 0%)” value is reported as −198.93%; the “Behaviour Pole Test, value ± SD” value was “(8.73 ± 7.95)”; the “SN cell counts % of SSV” value is given as 39.2%; the “SN cell counts (cells +/− SD)” value is reported as “(2754.62 ± 461.23) cells”.
